Converted amounts (≈) assume the structure as drawn. Read-outs that look alike come from different tables or passages of the source.
Assays:
[1] = tested on: Candida parapsilosis ATCC 22019; test: broth microdilution MIC/MFC; type: cell-based; details: Lodderomyces parapsilosis, ATCC22019
[2] = tested on: Candida albicans ATCC 10231; test: cup-plate agar diffusion method, inhibition zone diameters; type: cell-based
[3] = tested on: Candida albicans ATCC 18804; test: broth microdilution MIC/MFC; type: cell-based
[4] = tested on: Candida albicans ATCC 10231; test: broth microdilution MIC/MFC; type: cell-based
Candida krusei ATCC 6258 = test: broth microdilution MIC/MFC; type: cell-based; details: Pichia kudriavzevii, ATCC6258
[5] = lipophilicity by RP-TLC with PCA; type: physicochemical; set-up: key to P1 / P2: PCA scores of compounds computed from Rf data; details: for RM0: RP-TLC C18, water-i-propanol 45-65%, intercept, RM extrapolated to 0% organic modifier (lipophilicity); for b: RP-TLC regression slope (specific hydrophobic surface area); for P1: score of first principal component of Rf data, low P1 = highly lipophilic; for P2: score of second principal component of Rf data
Experimental: The lipophilic character of twenty thiazolin-4-one derivatives was assessed with the help of the principal component analysis (PCA) based on the reversed-phase thin-layer chromatography (RP-TLC) data.
The chromatographic behavior of the test compounds was studied on C18 silicagel bonded 60 RP-180F254S TLC (20 × 20 cm) plates, purchased from Merck (Darmstadt, Germany). The test compounds’ solutions (1 mg/mL) were prepared by dissolving the samples in DMSO (Merck, Darmstadt, Germany). The plates were manually spotted with 3 µL aliquots of each solution at 10 mm from the base and 5 mm from the edge of the plate, leaving a 10 mm distance between successive spots, and developed by the ascending technique, without preconditioning. Chromatography was performed in a normal developing chamber at room temperature (~24 °C), the developing distance being of 9 cm. The solvent system used as mobile phase consisted of a water-i-propanol mixture, with a varying content of organic modifier (i-propanol—concentration ranged between 45% and 65% (v/v), with 5% vol. increments). Before the development, the chamber was saturated with the mobile phase for 15 min. After being developed, the dried plates were visually inspected under the UV light (λ = 254 nm), each spot was clearly marked and its distance was manually measured in order to calculate the Rf values. The spots of the compounds 3f, 10 and 11 were not visible in UV light, thus their Rf values could not be calculated, therefore they were excluded from this assay.
Based on the Rf values, one of the most common lipophilic estimator, meaning the isocratic retention factor RM was calculated using the Bate-Smith and Westall equations [40].
RP-TLC provides retention data in the form of Rf and the corresponding RM values (Equation (2)) that can be used to derive chromatographic descriptors for estimating lipophilicity: RM0, b and PCA. The most popular lipophilicity descriptor estimated by this method is RM and it is derived from the retention factor (Rf) according to the following formula: RM = log[(1/Rf) − 1] (2) where Rf is calculated on the basis of migration distance of a compound and the solvent front.
As RM value (related to the molecular lipophilicity) depends linearly on the concentration of the organic modifier in the mobile phase, the value is extrapolated to pure water as mobile phase. In order to increase the accuracy of the lipophilicity determination, the RM values extrapolated to zero organic modifier concentration (RM0) have been calculated from the linear correlation between the RM values and the concentration of the organic component of the mobile phase: RM = RM0 + bc (3) where RM0 is the lipophilicity estimation parameter, RM is the retention of the solute, b is the slope, and c is the concentration of the mobile phase organic modifier (i-propanol).
The intercept (RM0) in Equation (3) represents the extrapolated RM values at 0% organic modifier.
PCA was performed on the obtained retention parameters with the help of XL-STAT extension. […] PCA gave the coordinates (scores) of the studied compounds and also the loadings of the variables (solvents) on the principal components.

[6] = C. parapsilosis ATCC 22019, read-out: MFC
[7] = C. parapsilosis ATCC 22019, read-out: MIC
[8] = ATCC10231, C. albicans ATCC 10231, 1 mg/mL in DMSO, 20 µg/well, mean of three ± SD, read-out: inhibition zone diameters
[9] = ATCC18804, C. albicans ATCC 18804, read-out: MFC
[10] = ATCC18804, C. albicans ATCC 18804, read-out: MIC
[11] = ATCC10231, C. albicans ATCC 10231, read-out: MFC
[12] = ATCC10231, C. albicans ATCC 10231, read-out: MIC
[13] = C. krusei ATCC 6258, read-out: MFC
[14] = C. krusei ATCC 6258, read-out: MIC

| SMILES | MIC [1, 7] [µg/mL] | MIC [3, 10] [µg/mL] | MIC [4, 12] [µg/mL] | MIC (Candida krusei ATCC 6258; [14]) [µg/mL] | RM0 [5] | b [5] | P1 [5] | P2 [5] | melting point [°C] | MFC [1, 6] [µg/mL] | zone of inhibition at 1000 µg/mL [2, 8] [mm] | MFC [3, 9] [µg/mL] | MFC [4, 11] [µg/mL] | MFC (Candida krusei ATCC 6258; [13]) [µg/mL] | further results |
| --- | --- | --- | --- | --- | --- | --- | --- | --- | --- | --- | --- | --- | --- | --- | --- |
| O=C1CSC(Nc2cccc3ccccc23)=N1 [Compound 8, 2-(naphthalen-1-ylamino)thiazol-4(5H)-one] | 0.03 (≈ 0.124 µM) | 0.12 (≈ 0.495 µM) | 0.12 (≈ 0.495 µM) | 0.06 (≈ 0.248 µM) | 1.6225 | −3.0931 | 1.125 | −0.163 | – | 0.12 (≈ 0.495 µM) | 24 ± 1 | 0.24 (≈ 0.99 µM) | 0.24 (≈ 0.99 µM) | 0.12 (≈ 0.495 µM) | – |
| O=C1N=C(Nc2ccccc2)SC1=Cc1csc(-c2ccccc2)n1 [Compound 6d, 2-(Phenylamino)-5-((2-phenylthiazol-4-yl)methylene)thiazol-4(5H)-one] | 3.9 (≈ 10.7 µM) | 7.81 (≈ 21.5 µM) | 3.9 (≈ 10.7 µM) | 7.81 (≈ 21.5 µM) | 2.1996 | −3.8092 | −0.168 | −0.359 | 287 to 289 | 7.81 (≈ 21.5 µM) | 20 ± 1 | 15.6 (≈ 43 µM) | 7.81 (≈ 21.5 µM) | 15.6 (≈ 43 µM) | – |
| C=CCNC1=NC(=O)CS1 [Compound 2, 2-(allylamino)thiazol-4(5H)-one] | 0.12 (≈ 0.768 µM) | 0.24 (≈ 1.54 µM) | 0.12 (≈ 0.768 µM) | 0.24 (≈ 1.54 µM) | 0.0414 | −1.1059 | 4.335 | 0.879 | 90 to 91 | 0.24 (≈ 1.54 µM) | 20 ± 0.2 | 0.48 (≈ 3.07 µM) | 0.24 (≈ 1.54 µM) | 0.48 (≈ 3.07 µM) | – |
| O=C1CSC(Nc2ccccc2)=N1 [Compound 5, 2-(phenylamino)thiazol-4(5H)-one] | – | – | – | – | 0.9459 | −2.2931 | 2.796 | 0.238 | – | – | – | – | – | – | MFC [1]: 0.12 µg/mL (≈ 0.624 µM); MIC [1]: 0.06 µg/mL (≈ 0.312 µM); zone of inhibition at 1000 µg/mL ([2]; ATCC10231, read-out: inhibition zone diameters): 22 ± 0.5 mm; MFC ([3]; ATCC18804): 0.24 µg/mL (≈ 1.25 µM); MIC ([3]; ATCC18804): 0.12 µg/mL (≈ 0.624 µM); MFC ([4]; ATCC10231): 0.48 µg/mL (≈ 2.5 µM); MIC ([4]; ATCC10231): 0.24 µg/mL (≈ 1.25 µM); MFC (Candida krusei ATCC 6258): 0.12 µg/mL (≈ 0.624 µM); MIC (Candida krusei ATCC 6258): 0.06 µg/mL (≈ 0.312 µM) |
| O=C1CSC(c2ccccc2)=N1 [Compound 11, 2-phenylthiazol-4(5H)-one] | 0.06 (≈ 0.339 µM) | 0.12 (≈ 0.677 µM) | 0.24 (≈ 1.35 µM) | 0.12 (≈ 0.677 µM) | – | – | – | – | – | 0.12 (≈ 0.677 µM) | 18 ± 1 | 0.24 (≈ 1.35 µM) | 0.48 (≈ 2.71 µM) | 0.48 (≈ 2.71 µM) | – |

Now from value to compound, other results behind:

| MIC [1, 7] [µg/mL] | MIC [3, 10] [µg/mL] | MIC [4, 12] [µg/mL] | MIC (Candida krusei ATCC 6258; [14]) [µg/mL] | RM0 [5] | b [5] | P1 [5] | P2 [5] | melting point [°C] | SMILES | MFC [1, 6] [µg/mL] | zone of inhibition at 1000 µg/mL [2, 8] [mm] | MFC [3, 9] [µg/mL] | MFC [4, 11] [µg/mL] | MFC (Candida krusei ATCC 6258; [13]) [µg/mL] | further results |
| --- | --- | --- | --- | --- | --- | --- | --- | --- | --- | --- | --- | --- | --- | --- | --- |
| 7.81 (≈ 23.9 µM) | 31.2 (≈ 95.4 µM) | 31.2 (≈ 95.4 µM) | 15.6 (≈ 47.7 µM) | 2.2119 | −3.7366 | −0.549 | −0.241 | 339 | C=CCNC1=NC(=O)C(=Cc2csc(-c3ccccc3)n2)S1 [Compound 3d, 2-(Allylamino)-5-((2-phenylthiazol-4-yl)methylene)thiazol-4(5H)-one] | 15.6 (≈ 47.7 µM) | 20 ± 0.2 | 62.5 (≈ 191 µM) | 62.5 (≈ 191 µM) | 31.2 (≈ 95.4 µM) | – |
| 0.12 (≈ 0.29 µM) | 3.9 (≈ 9.43 µM) | 7.81 (≈ 18.9 µM) | 0.24 (≈ 0.58 µM) | 3.287 | −4.6935 | −3.746 | 0.618 | 312 | O=C1N=C(Nc2cccc3ccccc23)SC1=Cc1csc(-c2ccccc2)n1 [Compound 9d, 2-(Naphthalen-1-ylamino)-5-((2-phenylthiazol-4-yl)methylene)thiazol-4(5H)-one] | 0.24 (≈ 0.58 µM) | 20 ± 1 | 3.9 (≈ 9.43 µM) | 15.6 (≈ 37.8 µM) | 0.48 (≈ 1.16 µM) | – |
| 0.03 (≈ 0.0799 µM) | 1.95 (≈ 5.19 µM) | 1.95 (≈ 5.19 µM) | 0.97 (≈ 2.58 µM) | 2.7789 | −4.1555 | −2.722 | 0.228 | 152 | O=C1N=C(Nc2cccc3ccccc23)SC1=Cc1ccc([N+](=O)[O-])cc1 [Compound 9c, 2-(Naphthalen-1-ylamino)-5-(4-nitrobenzylidene)thiazol-4(5H)-one] | 0.06 (≈ 0.16 µM) | 20 ± 0.5 | 3.9 (≈ 10.4 µM) | 3.9 (≈ 10.4 µM) | 1.95 (≈ 5.19 µM) | – |
| 7.81 (≈ 28 µM) | 15.6 (≈ 56 µM) | 31.2 (≈ 112 µM) | 15.6 (≈ 56 µM) | 2.0801 | −3.6152 | −0.090 | −0.268 | 198 | C=CCNC1=NC(=O)C(=Cc2cccc(Cl)c2)S1 [Compound 3a, 2-(Allylamino)-5-(3-chlorobenzylidene)thiazol-4(5H)-one] | 15.6 (≈ 56 µM) | 20 ± 0.5 | 31.2 (≈ 112 µM) | 31.2 (≈ 112 µM) | 31.2 (≈ 112 µM) | – |
| 7.81 (≈ 22.5 µM) | 15.6 (≈ 45 µM) | 31.2 (≈ 90.1 µM) | 15.6 (≈ 45 µM) | 2.2869 | −3.9184 | −0.349 | −0.354 | 299 to 301 | C=CCNC1=NC(=O)C(=Cc2coc3ccc(Cl)cc3c2=O)S1 [Compound 3e, 2-(Allylamino)-5-((6-chloro-4-oxo-4H-chromen-3-yl)methylene)thiazol-4(5H)-one] | 15.6 (≈ 45 µM) | 20 ± 0.5 | 31.2 (≈ 90.1 µM) | 62.5 (≈ 180 µM) | 31.2 (≈ 90.1 µM) | – |
| 15.6 (≈ 54 µM) | 31.2 (≈ 108 µM) | 31.2 (≈ 108 µM) | 15.6 (≈ 54 µM) | 1.7553 | −3.314 | 1.049 | −0.259 | 265 | C=CCNC1=NC(=O)C(=Cc2ccc([N+](=O)[O-])cc2)S1 [Compound 3c, 2-(Allylamino)-5-(4-nitrobenzylidene)thiazol-4(5H)-one] | 31.2 (≈ 108 µM) | 18 ± 1 | 31.2 (≈ 108 µM) | 31.2 (≈ 108 µM) | 15.6 (≈ 54 µM) | – |
| 0.48 (≈ 1.32 µM) | 1.95 (≈ 5.34 µM) | 3.9 (≈ 10.7 µM) | 0.48 (≈ 1.32 µM) | 2.5309 | −4.1292 | −1.227 | −0.239 | 140 | O=C1N=C(Nc2cccc3ccccc23)SC1=Cc1cccc(Cl)c1 [Compound 9a, 5-(3-Chlorobenzylidene)-2-(naphthalen-1-ylamino)thiazol-4(5H)-one] | 0.97 (≈ 2.66 µM) | 18 ± 1 | 7.81 (≈ 21.4 µM) | 7.81 (≈ 21.4 µM) | 0.97 (≈ 2.66 µM) | – |
| 1.95 (≈ 6.03 µM) | 7.81 (≈ 24.2 µM) | 1.95 (≈ 6.03 µM) | 3.9 (≈ 12.1 µM) | – | – | – | – | 330 | C=CCNC1=NC(=O)C(=Cc2cccc(Br)c2)S1 [Compound 3f, 2-(Allylamino)-5-(3-bromobenzylidene)thiazol-4(5H)-one] | 3.9 (≈ 12.1 µM) | 22 ± 0.2 | 15.6 (≈ 48.3 µM) | 3.9 (≈ 12.1 µM) | 7.81 (≈ 24.2 µM) | – |
